{"source": "patent US12653883B2", "about": "(priority 2018, dated 2026)", "key": {"[1]": {"test_system": "C57BL/6J mice", "details": "mouse, in vivo"}, "[2]": {"test_system": "Balb/c mice", "details": "mouse, in vivo"}}, "note": "Several values for one entry are separate records, joined by “and”; a condition that tells them apart may be missing. Equal entries are not always repeated.", "data": [{"smiles": "C[C@@H]1CCN(C(=O)CC#N)C[C@@H]1N(C)c1ncnc2[nH]ccc12", "note": "[Tofacitinib]", "values": [{"measurement": "Increase in luciferase expression by pretreatment", "setting": "[1]", "value": "~60", "unit": "fold"}, {"measurement": "Mean antigen-specific T-cells, IFNg+ (% of CD8)", "setting": "[2]", "value": "13 % of CD8 and 12.9 % of CD8"}]}]}
